Reference: US7767696B2, “Pyrazole derivatives” (Merck Patent GmbH, priority 2005, dated 2010)

Assays:
VEGFR (KDR) = target: T1, VEGFR (KDR) (Homo sapiens, UniProt P35968); test: VEGF receptor kinase assay (33P incorporation into pEY substrate); format: biochemical; details: read-out: Kinase-Inhibiting Activities IC50 VEGFR
T1 construct: cloning the cytoplasmic domain of the KDR kinase as an in frame fusion at the carboxyl terminus of the GST gene; made in house; host or cells: Spodoptera frugiperda (Sf21) insect cells, baculovirus vector pAcG2T
Procedure: VEGF receptor kinase activity is measured by incorporation of radiolabelled phosphate into 4:1 polyglutamic acid/tyrosine substrate (pEY). The phosphorylated pEY product is trapped on a filter membrane and the incorporation of radiolabelled phosphate is quantified by scintillation counting.
The intracellular tyrosine kinase domains of human KDR (Terman, B. I. et al. Oncogene (1991) Vol. 6, pp. 1677-1683.) and Flt-1 (Shibuya, M. et al. Oncogene (1990) Vol. 5, pp. 519-524) were cloned as glutathione S-transferase (GST) gene fusion proteins. This was accomplished by cloning the cytoplasmic domain of the KDR kinase as an in frame fusion at the carboxyl terminus of the GST gene. Soluble recombinant GST-kinase domain fusion proteins were expressed in Spodoptera frugiperda (Sf21) insect cells (Invitrogen) using a baculovirus expression vector (pAcG2T, Pharmingen).
Method B—VEGF Receptor Kinase Assay
1. Add 5 μl of inhibitor or control to the assay in 50% DMSO.
2. Add 35 μl of reaction mixture containing 5 μl of 10× reaction buffer, 5 μl of 25 mM ATP/10 μCi[^33P]ATP (Amersham) and 5 μl of 10× substrate.
3. Start the reaction by the addition of 10 μl of KDR (25 nM) in enzyme dilution buffer.
4. Mix and incubate at room temperature for 15 minutes.
5. Stop the reaction by the addition of 50 μl of stop solution.
6. Incubate at 4° C. for 15 minutes.
7. Transfer a 90 μl aliquot to filter plate.
8. Aspirate and wash 3 times with wash solution.
9. Add 30 μl of scintillation cocktail, seal plate and count in a Wallace Microbeta scintillation counter.

TIE-2 = TIE-2 (Homo sapiens, UniProt Q02763); test: TIE-2 kinase flashplate assay (phosphorylation of poly(Glu, Tyr) with 33P-ATP); format: biochemical; details: read-out: Kinase-Inhibiting Activities IC50 TIE-2
Procedure: The TIE-2 tests can be carried out, for example, analogously to the methods indicated in WO 02/44156.
The assay determines the inhibiting activity of the substances to be tested in the phosphorylation of the substrate poly(Glu, Tyr) by Tie-2 kinase in the presence of radioactive ^33P-ATP. The phosphorylated substrate binds to the surface of a “flashplate” microtitre plate during the incubation time. After removal of the reaction mixture, the microtitre plate is washed a number of times and the radioactivity on its surface is subsequently measured. An inhibiting effect of the substances to be measured results in lower radioactivity compared with an undisturbed enzymatic reaction.

Sequence of TIE-2 (Q02763 23-1124, species assumed): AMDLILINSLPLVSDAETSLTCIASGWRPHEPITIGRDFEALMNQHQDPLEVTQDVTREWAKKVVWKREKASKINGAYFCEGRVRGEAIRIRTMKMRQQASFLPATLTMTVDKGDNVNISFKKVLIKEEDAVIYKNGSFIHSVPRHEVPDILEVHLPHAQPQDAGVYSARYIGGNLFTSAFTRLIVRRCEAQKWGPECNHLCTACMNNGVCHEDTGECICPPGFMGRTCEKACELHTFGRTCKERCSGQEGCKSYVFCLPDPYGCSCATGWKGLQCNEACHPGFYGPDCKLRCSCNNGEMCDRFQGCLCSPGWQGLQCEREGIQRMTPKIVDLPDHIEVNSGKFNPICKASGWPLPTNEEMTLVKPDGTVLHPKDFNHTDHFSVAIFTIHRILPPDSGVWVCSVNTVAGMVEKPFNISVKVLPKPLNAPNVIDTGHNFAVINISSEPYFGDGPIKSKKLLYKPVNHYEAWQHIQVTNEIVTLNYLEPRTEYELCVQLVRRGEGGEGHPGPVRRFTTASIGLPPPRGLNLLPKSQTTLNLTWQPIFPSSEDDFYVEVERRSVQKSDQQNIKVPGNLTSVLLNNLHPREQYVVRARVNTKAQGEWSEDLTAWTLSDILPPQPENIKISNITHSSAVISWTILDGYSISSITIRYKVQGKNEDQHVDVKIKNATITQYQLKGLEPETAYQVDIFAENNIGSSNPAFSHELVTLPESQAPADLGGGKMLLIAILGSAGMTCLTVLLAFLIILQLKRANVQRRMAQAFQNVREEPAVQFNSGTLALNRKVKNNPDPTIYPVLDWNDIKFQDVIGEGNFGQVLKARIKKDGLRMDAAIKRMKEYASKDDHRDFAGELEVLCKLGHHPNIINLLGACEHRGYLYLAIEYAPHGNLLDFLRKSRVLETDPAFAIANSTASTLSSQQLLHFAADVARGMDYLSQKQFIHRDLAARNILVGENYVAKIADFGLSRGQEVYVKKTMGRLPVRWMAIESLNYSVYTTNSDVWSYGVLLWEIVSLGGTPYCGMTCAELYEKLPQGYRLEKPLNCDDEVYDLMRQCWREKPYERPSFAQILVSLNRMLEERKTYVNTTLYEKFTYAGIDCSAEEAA
T1 sequence (P35968 786-1356 limits assumed): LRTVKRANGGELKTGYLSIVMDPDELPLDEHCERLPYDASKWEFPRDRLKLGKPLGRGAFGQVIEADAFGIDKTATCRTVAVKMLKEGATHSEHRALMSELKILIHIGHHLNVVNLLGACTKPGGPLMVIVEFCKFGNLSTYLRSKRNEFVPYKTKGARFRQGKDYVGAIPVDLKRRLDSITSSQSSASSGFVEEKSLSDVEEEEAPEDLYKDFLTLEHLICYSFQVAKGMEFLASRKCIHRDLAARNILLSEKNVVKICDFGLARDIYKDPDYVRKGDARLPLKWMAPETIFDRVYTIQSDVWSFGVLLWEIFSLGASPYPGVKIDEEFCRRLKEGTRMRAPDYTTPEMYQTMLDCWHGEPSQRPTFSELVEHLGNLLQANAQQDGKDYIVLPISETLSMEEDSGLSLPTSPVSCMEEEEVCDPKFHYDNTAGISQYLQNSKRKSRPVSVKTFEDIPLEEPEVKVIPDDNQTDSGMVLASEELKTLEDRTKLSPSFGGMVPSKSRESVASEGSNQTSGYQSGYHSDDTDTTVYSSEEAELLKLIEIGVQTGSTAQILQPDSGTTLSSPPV

Row | Compound | IC50 (VEGFR (KDR)) [nM] | IC50 (TIE-2) [nM]
1 | CNC(=O)c1cc(Oc2ccc(NC(=O)Nc3cc(C(C)(C)C)nn3-c3ccc(F)cc3)cc2)ccn1 [Compound 1, 1-[4-(2-methylaminocarbonylpyridin-4-yloxy)phenyl]-3-[5-tert-butyl-2-(4-fluorophenyl)-2H-pyrazol-3-yl]urea] | 110 | 6.5
2 | CNC(=O)c1cc(Oc2ccc(NC(=O)Nc3cc(-c4ccco4)nn3-c3ccc(C)cc3)cc2)ccn1 [Compound 2, 1-[4-(2-methylaminocarbonylpyridin-4-yloxy)phenyl]-3-[5-(furan-2-yl)-2-(p-tolyl)-2H-pyrazol-3-yl]urea] | 33.5 | 4.3
3 | CNC(=O)c1cc(Oc2ccc(NC(=O)Nc3cc(-c4ccco4)nn3-c3ccc(F)cc3)cc2)ccn1 [Compound 3, 1-[4-(2-Methylaminocarbonylpyridin-4-yloxy)phenyl]-3-[5-(furan-2-yl)-2-(4-fluorophenyl)-2H-pyrazol-3-yl]urea] | 74.8 | 9.7
4 | CNC(=O)c1cc(Oc2ccc(NC(=O)Nc3cc(C(C)(C)C)nn3-c3ccc(C)cc3)cc2)ccn1 [Compound 8, 1-[4-(2-Methylaminocarbonylpyridin-4-yloxy)phenyl]-3-[5-tert-butyl-2-(p-tolyl)-2H-pyrazol-3-yl]urea] | 58 | 7.2
5 | CNC(=O)c1cc(Oc2ccc(NC(=O)Nc3cc(C(C)(C)C)nn3-c3cccc(C(F)(F)F)c3)cc2)ccn1 [Compound 11, 1-[4-(2-Methylaminocarbonylpyridin-4-yloxy)phenyl]-3-[5-tert-butyl-2-(3-trifluoromethylphenyl)-2H-pyrazol-3-yl]urea] | 134 | 3.2
